ChEMBL document CHEMBL1201861, “Genomics of Drug Sensitity in Cancer screening data, Wellcome Trust Sanger Institute”

How the values were obtained:
Assay in all cases: cells
COLO-741 = format: functional, cell-based, Homo sapiens; settings: Homo sapiens, COLO-741
Description: SANGER: Inhibition of human COLO-741 cell growth in a cell viability assay.

COR-L23 = format: functional, cell-based, Homo sapiens; settings: Homo sapiens, COR-L23;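 note: cell viability assay measuring how strongly compounds suppress growth of COR-L23 cells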
Description: SANGER: Inhibition of human COR-L23 cell growth in a cell viability assay.

EFO-21 = format: functional, cell-based, Homo sapiens; settings: Homo sapiens, EFO-21;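 note: growth inhibition of EFO-21 cells measured with a viability assay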
Description: SANGER: Inhibition of human EFO-21 cell growth in a cell viability assay.

ES4 = format: functional, cell-based, Homo sapiens; settings: Homo sapiens, ES4;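 note: growth inhibition of human ES4 cells, read out by a cell viability assay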
Description: SANGER: Inhibition of human ES4 cell growth in a cell viability assay.

G-401 = format: functional, cell-based, Homo sapiens; settings: Homo sapiens, G-401
Description: SANGER: Inhibition of human G-401 cell growth in a cell viability assay.

GCT = format: functional, cell-based, Homo sapiens; settings: Homo sapiens, GCT;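 note: GCT cell line proliferation inhibition, read out with a cell viability assay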
Description: SANGER: Inhibition of human GCT cell growth in a cell viability assay.

HCC1419 = format: functional, cell-based, Homo sapiens; settings: Homo sapiens, HCC1419;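 note: growth inhibition of human HCC1419 cells, read out as cell viability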
Description: SANGER: Inhibition of human HCC1419 cell growth in a cell viability assay.

HOS = format: functional, cell-based, Homo sapiens; settings: Homo sapiens, HOS;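 note: growth inhibition of human HOS cells, read out with a cell viability assay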
Description: SANGER: Inhibition of human HOS cell growth in a cell viability assay.

Huh-7 = format: functional, cell-based, Homo sapiens; settings: Homo sapiens, Huh-7;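 note: HuH-7 cell growth inhibition, read out with a cell viability assay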
Description: SANGER: Inhibition of human HuH-7 cell growth in a cell viability assay.

IGR-1 = format: functional, cell-based, Homo sapiens; settings: Homo sapiens, IGR-1;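 note: growth inhibition of human IGR-1 cells, read out with a cell viability assay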
Description: SANGER: Inhibition of human IGR-1 cell growth in a cell viability assay.

IST-MEL1 = format: functional, cell-based, Homo sapiens; settings: Homo sapiens, IST-MEL1;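 note: growth inhibition of the cell line, read out with a cell viability assay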
Description: SANGER: Inhibition of human IST-MEL1 cell growth in a cell viability assay.

KLE = format: functional, cell-based, Homo sapiens; settings: Homo sapiens, KLE;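 note: growth inhibition of human KLE cells, read out with a cell viability assay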
Description: SANGER: Inhibition of human KLE cell growth in a cell viability assay.

KYSE-150 cell line = format: functional, cell-based, Homo sapiens; settings: Homo sapiens, KYSE-150;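 note: growth inhibition of human KYSE-150 cells, read out with a cell viability assay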
Description: SANGER: Inhibition of human KYSE-150 cell growth in a cell viability assay.

KYSE-270 = format: functional, cell-based, Homo sapiens; settings: Homo sapiens, KYSE-270;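 note: cell growth inhibition measured with a viability assay in the human KYSE-270 line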
Description: SANGER: Inhibition of human KYSE-270 cell growth in a cell viability assay.

LCLC-103H cell line = format: functional, cell-based, Homo sapiens; settings: Homo sapiens, LCLC-103H
Description: SANGER: Inhibition of human LCLC-103H cell growth in a cell viability assay.

LS-513 = format: functional, cell-based, Homo sapiens; settings: Homo sapiens, LS-513
Description: SANGER: Inhibition of human LS-513 cell growth in a cell viability assay.

LU-134-A = format: functional, cell-based; settings: Homo sapiens
Description: SANGER: Inhibition of human LU-134-A cell growth in a cell viability assay.

MC-IXC = format: functional, cell-based, Homo sapiens; settings: Homo sapiens, MC-IXC;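 note: growth inhibition of MC-IXC cells, read out with a cell viability assay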
Description: SANGER: Inhibition of human MC-IXC cell growth in a cell viability assay.

ME-180 = format: functional, cell-based; settings: Homo sapiens;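 note: cell viability assay measuring growth inhibition of ME-180 cells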
Description: SANGER: Inhibition of human ME-180 cell growth in a cell viability assay.

MG-63 = format: functional, cell-based, Homo sapiens; settings: Homo sapiens, MG-63;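 note: growth inhibition of human MG-63 cells, read out with a cell viability assay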
Description: SANGER: Inhibition of human MG-63 cell growth in a cell viability assay.

NCI-H1092 = format: functional, cell-based; settings: Homo sapiens;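 note: cell growth inhibition measured with a cell viability assay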
Description: SANGER: Inhibition of human NCI-H1092 cell growth in a cell viability assay.

NCI-H1395 = format: functional, cell-based, Homo sapiens; settings: Homo sapiens, NCI-H1395;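 note: cell viability assay read-out quantifying reduced proliferation of human NCI-H1395 cells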
Description: SANGER: Inhibition of human NCI-H1395 cell growth in a cell viability assay.

NCI-H1755 = format: functional, cell-based, Homo sapiens; settings: Homo sapiens, NCI-H1755;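 note: cell viability readout used to measure growth inhibition of NCI-H1755 cells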
Description: SANGER: Inhibition of human NCI-H1755 cell growth in a cell viability assay.

NCI-H1793 = format: functional, cell-based, Homo sapiens; settings: Homo sapiens, NCI-H1793;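 note: cell growth inhibition, read out by a cell viability assay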
Description: SANGER: Inhibition of human NCI-H1793 cell growth in a cell viability assay.

NCI-H2087 = format: functional, cell-based, Homo sapiens; settings: Homo sapiens, NCI-H2087;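 note: growth inhibition determined with a cell viability readout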
Description: SANGER: Inhibition of human NCI-H2087 cell growth in a cell viability assay.

NCI-H2126 = format: functional, cell-based, Homo sapiens; settings: Homo sapiens, NCI-H2126;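 note: growth inhibition of the cancer cell line, determined with a cell viability readout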
Description: SANGER: Inhibition of human NCI-H2126 cell growth in a cell viability assay.

NCI-H2452 = format: functional, cell-based, Homo sapiens; settings: Homo sapiens, NCI-H2452;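 note: growth inhibition of NCI-H2452 cells, read out with a cell viability assay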
Description: SANGER: Inhibition of human NCI-H2452 cell growth in a cell viability assay.

NCI-H747 = format: functional, cell-based; settings: Homo sapiens;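 note: growth inhibition of human NCI-H747 cells, read out by a cell viability assay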
Description: SANGER: Inhibition of human NCI-H747 cell growth in a cell viability assay.

OVCAR-5 = format: functional, cell-based, Homo sapiens; settings: Homo sapiens, OVCAR-5;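 note: growth inhibition of human OVCAR-5 cells, read out with a cell viability assay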
Description: SANGER: Inhibition of human OVCAR-5 cell growth in a cell viability assay.

P30-OHK = format: functional, cell-based; settings: Homo sapiens;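 note: growth inhibition of the P30-OHK cell line, read out with a cell viability assay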
Description: SANGER: Inhibition of human P30-OHK cell growth in a cell viability assay.

PA-1 = format: functional, cell-based, Homo sapiens; settings: Homo sapiens, PA-1;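 note: IC50 for suppression of PA-1 cell proliferation, determined with a cell viability read-out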
Description: SANGER: Inhibition of human PA-1 cell growth in a cell viability assay.

QIMR-WIL = format: functional, cell-based; settings: Homo sapiens;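 note: growth inhibition of QIMR-WIL cells, read out with a cell viability assay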
Description: SANGER: Inhibition of human QIMR-WIL cell growth in a cell viability assay.

RH-1 = format: functional, cell-based, Homo sapiens; settings: Homo sapiens, RH-1;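 note: growth inhibition of human RH-1 cells, read out with a cell viability assay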
Description: SANGER: Inhibition of human RH-1 cell growth in a cell viability assay.

Ramos-2G6-4C10 = format: functional, cell-based; settings: Homo sapiens;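 note: growth inhibition of the cell line, measured by a cell viability read-out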
Description: SANGER: Inhibition of human Ramos-2G6-4C10 cell growth in a cell viability assay.

SF-268 = format: functional, cell-based, Homo sapiens; settings: Homo sapiens, SF-268;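 note: growth inhibition of SF-268 cells determined with a cell viability assay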
Description: SANGER: Inhibition of human SF268 cell growth in a cell viability assay.

SK-MEL-30 = format: functional, cell-based; settings: Homo sapiens;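 note: growth inhibition of SK-MEL-30 cells, determined with a cell viability assay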
Description: SANGER: Inhibition of human SK-MEL-30 cell growth in a cell viability assay.

SK-NEP-1 = format: functional, cell-based; settings: Homo sapiens;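 note: growth inhibition of human SK-NEP-1 cells, read out by a cell viability assay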
Description: SANGER: Inhibition of human SK-NEP-1 cell growth in a cell viability assay.

SW1417 = format: functional, cell-based, Homo sapiens; settings: Homo sapiens, SW1417;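 note: growth inhibition of human SW1417 cells, read out with a cell viability assay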
Description: SANGER: Inhibition of human SW1417 cell growth in a cell viability assay.

SW1573 = format: functional, cell-based, Homo sapiens; settings: Homo sapiens, SW1573;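 note: growth inhibition of SW1573 cells, read out with a cell viability assay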
Description: SANGER: Inhibition of human SW1573 cell growth in a cell viability assay.

SW1783 = format: functional, cell-based; settings: Homo sapiens;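 note: cell growth inhibition measured with a viability assay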
Description: SANGER: Inhibition of human SW1783 cell growth in a cell viability assay.

SW684 = format: functional, cell-based, Homo sapiens; settings: Homo sapiens, SW684;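 note: growth inhibition of human SW684 cells, measured by a cell viability assay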
Description: SANGER: Inhibition of human SW684 cell growth in a cell viability assay.

SW948 = format: functional, cell-based, Homo sapiens; settings: Homo sapiens, SW948;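 note: growth inhibition of SW948 cells, read out with a cell viability assay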
Description: SANGER: Inhibition of human SW948 cell growth in a cell viability assay.

T-24 = format: functional, cell-based, Homo sapiens; settings: Homo sapiens, T-24;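 note: growth inhibition of T-24 cells, read out with a cell viability assay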
Description: SANGER: Inhibition of human T-24 cell growth in a cell viability assay.

639-V = format: functional, cell-based, Homo sapiens; settings: Homo sapiens, 639-V;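 note: growth inhibition of 639-V cells, read out with a cell viability assay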
Description: SANGER: Inhibition of human 639-V cell growth in a cell viability assay.

A-375 = format: functional, cell-based, Homo sapiens; settings: Homo sapiens, A-375;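 note: growth inhibition of A375 cells, read out with a cell viability assay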
Description: SANGER: Inhibition of human A375 cell growth in a cell viability assay.

A388 = format: functional, cell-based, Homo sapiens; settings: Homo sapiens, A388;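 note: growth inhibition of human A388 cells, read out with a cell viability assay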
Description: SANGER: Inhibition of human A388 cell growth in a cell viability assay.

C8166 = format: functional, cell-based; settings: Homo sapiens;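 note: growth inhibition of human C8166 cells measured by a cell viability assay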
Description: SANGER: Inhibition of human C8166 cell growth in a cell viability assay.

CAL-120 = format: functional, cell-based, Homo sapiens; settings: Homo sapiens, CAL-120;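 note: cell growth inhibition, read out as cell viability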
Description: SANGER: Inhibition of human CAL-120 cell growth in a cell viability assay.

CAL-51 = format: functional, cell-based, Homo sapiens; settings: Homo sapiens, CAL-51;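 note: human CAL-51 cell line, growth inhibition read out via a cell viability assay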
Description: SANGER: Inhibition of human CAL-51 cell growth in a cell viability assay.

U-87 MG = format: functional, cell-based, U-87MG ATCC; settings: Homo sapiens;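 note: growth inhibition of the cells measured with a viability assay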
Description: SANGER: Inhibition of human U-87-MG cell growth in a cell viability assay.

COLO-668 = format: functional, cell-based, Homo sapiens; settings: Homo sapiens, COLO-668
Description: SANGER: Inhibition of human COLO-668 cell growth in a cell viability assay.

Q: How did the IC50 (COLO-741) turn out when Cn1cncc1[C@@](N)(c1ccc(Cl)cc1)c1ccc2c(c1)c(-c1cccc(Cl)c1)cc(=O)n2C [TIPIFARNIB] was run?
A: Its IC50 is 6550 nM.

Q: What about the IC50 (COR-L23) of the same compound?
A: The IC50 was 13800 nM.

Q: And the IC50 (EFO-21)?
A: Its IC50 is 4260 nM.

Q: What about the IC50 (ES4) of the same compound?
A: The IC50 was 1280 nM.

Q: What about the IC50 (G-401) of the same compound?
A: The IC50 was 503 nM.

Q: What about the IC50 (GCT) of the same compound?
A: Its IC50 is greater than 16000 nM.

Q: And the IC50 (HCC1419)?
A: The IC50 was 4650 nM.

Q: What about the IC50 (HOS) of the same compound?
A: The IC50 was 4100 nM.

Q: What about the IC50 (Huh-7) of the same compound?
A: The IC50 was 6050 nM.

Q: And the IC50 (IGR-1)?
A: Its IC50 is 1620 nM.

Q: And the IC50 (IST-MEL1)?
A: Its IC50 is 2820 nM.

Q: What about the IC50 (KLE) of the same compound?
A: The IC50 was 8910 nM.

Q: And the IC50 (KYSE-150 cell line)?
A: The IC50 was 6200 nM.

Q: And the IC50 (KYSE-270)?
A: The IC50 was 217 nM.

Q: And the IC50 (LCLC-103H cell line)?
A: Its IC50 is 129 nM.

Q: What about the IC50 (LS-513) of the same compound?
A: The IC50 was greater than 16000 nM.

Q: What about the IC50 (LU-134-A) of the same compound?
A: The IC50 was greater than 16000 nM.

Q: What about the IC50 (MC-IXC) of the same compound?
A: The IC50 was 2760 nM.

Q: And the IC50 (ME-180)?
A: Its IC50 is 14500 nM.

Q: What about the IC50 (MG-63) of the same compound?
A: Its IC50 is 1840 nM.

Q: What about the IC50 (NCI-H1092) of the same compound?
A: The IC50 was greater than 16000 nM.

Q: What about the IC50 (NCI-H1395) of the same compound?
A: The IC50 was greater than 16000 nM.

Q: What about the IC50 (NCI-H1755) of the same compound?
A: Its IC50 is greater than 16000 nM.

Q: What about the IC50 (NCI-H1793) of the same compound?
A: Its IC50 is greater than 16000 nM.

Q: What about the IC50 (NCI-H2087) of the same compound?
A: The IC50 was 2280 nM.

Q: And the IC50 (NCI-H2126)?
A: The IC50 was greater than 16000 nM.

Q: And the IC50 (NCI-H2452)?
A: The IC50 was greater than 16000 nM.

Q: What about the IC50 (NCI-H747) of the same compound?
A: Its IC50 is 2660 nM.

Q: What about the IC50 (OVCAR-5) of the same compound?
A: The IC50 was greater than 16000 nM.

Q: What about the IC50 (P30-OHK) of the same compound?
A: The IC50 was 264 nM.

Q: What about the IC50 (PA-1) of the same compound?
A: Its IC50 is 1340 nM.

Q: And the IC50 (QIMR-WIL)?
A: The IC50 was 16.3 nM.

Q: And the IC50 (RH-1)?
A: The IC50 was 2750 nM.

Q: And the IC50 (Ramos-2G6-4C10)?
A: Its IC50 is greater than 16000 nM.

Q: And the IC50 (SF-268)?
A: Its IC50 is 8070 nM.

Q: What about the IC50 (SK-MEL-30) of the same compound?
A: Its IC50 is 3740 nM.

Q: And the IC50 (SK-NEP-1)?
A: Its IC50 is 9940 nM.

Q: And the IC50 (SW1417)?
A: Its IC50 is greater than 16000 nM.

Q: And the IC50 (SW1573)?
A: Its IC50 is greater than 16000 nM.

Q: And the IC50 (SW1783)?
A: Its IC50 is 1260 nM.

Q: And the IC50 (SW684)?
A: Its IC50 is greater than 16000 nM.

Q: What about the IC50 (SW948) of the same compound?
A: Its IC50 is greater than 16000 nM.

Q: And the IC50 (T-24)?
A: Its IC50 is 13900 nM.

Q: And the IC50 (639-V)?
A: Its IC50 is 1190 nM.

Q: And the IC50 (A-375)?
A: The IC50 was 616 nM.

Q: And the IC50 (A388)?
A: Its IC50 is 865 nM.

Q: What about the IC50 (C8166) of the same compound?
A: The IC50 was greater than 16000 nM.

Q: And the IC50 (CAL-120)?
A: Its IC50 is greater than 16000 nM.

Q: What about the IC50 (CAL-51) of the same compound?
A: The IC50 was 3530 nM.

Q: What about the IC50 (U-87 MG) of the same compound?
A: Its IC50 is greater than 16000 nM.

Q: What about the IC50 (COLO-668) of the same compound?
A: The IC50 was 3390 nM.

Q: Which results are given for CCC1=C[C@@H]2CN(C1)Cc1c([nH]c3ccccc13)[C@@](C(=O)OC)(c1cc3c(cc1OC)N(C)[C@H]1[C@@](O)(C(=O)OC)[C@H](OC(C)=O)[C@]4(CC)C=CCN5CC[C@]31[C@@H]54)C2 [VINORELBINE]?
A: IC50 (COLO-741): 35.7 nM; IC50 (COR-L23): 9.89 nM; IC50 (EFO-21): 21.7 nM; IC50 (ES4): > 64 nM; IC50 (G-401): 7.87 nM; IC50 (GCT): 50.8 nM; IC50 (HCC1419): > 64 nM; IC50 (HOS): 3.22 nM; IC50 (Huh-7): 29.6 nM; IC50 (IGR-1): 1.9 nM; IC50 (IST-MEL1): > 64 nM; IC50 (KLE): > 64 nM; IC50 (KYSE-150 cell line): 3.04 nM; IC50 (KYSE-270): 3.16 nM; IC50 (LCLC-103H cell line): 1.43 nM; IC50 (LS-513): > 64 nM; IC50 (LU-134-A): 47.2 nM; IC50 (MC-IXC): 1.49 nM; IC50 (ME-180): 21 nM; IC50 (MG-63): 2.94 nM; IC50 (NCI-H1092): 58.1 nM; IC50 (NCI-H1395): 53.5 nM; IC50 (NCI-H1755): 17.4 nM; IC50 (NCI-H1793): 19.2 nM; IC50 (NCI-H2087): 8.22 nM; IC50 (NCI-H2126): 29.3 nM; IC50 (NCI-H2452): > 64 nM; IC50 (NCI-H747): > 64 nM; IC50 (OVCAR-5): > 64 nM; IC50 (P30-OHK): 10.1 nM; IC50 (PA-1): 3.12 nM; IC50 (QIMR-WIL): 3.04 nM; IC50 (RH-1): 11 nM; IC50 (Ramos-2G6-4C10): 4.45 nM; IC50 (SF-268): 16.3 nM; IC50 (SK-MEL-30): 12.4 nM; IC50 (SK-NEP-1): 8.99 nM; IC50 (SW1417): > 64 nM; IC50 (SW1573): 34 nM; IC50 (SW1783): > 64 nM; IC50 (SW684): 24.2 nM; IC50 (SW948): 19.8 nM; IC50 (T-24): > 64 nM; IC50 (639-V): 6.61 nM; IC50 (A-375): 38.2 nM; IC50 (A388): 6.07 nM; IC50 (C8166): 17.6 nM; IC50 (CAL-120): 43.6 nM; IC50 (CAL-51): 8.61 nM; IC50 (U-87 MG): 27.1 nM; IC50 (COLO-668): 28.5 nM
